Data published in the supplement of paper PMC8671470.
Where a name gives a salt, the structure may show the parent alone. ± gives the standard deviation of the averaged measurements.

Legend:
Details in all cases: 72 h
[1] = test system: KCL-22
Method in brief: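 Fifteen myeloid leukaemia lines in RPMI 1640 were treated for 72 h at 37 °C and 5% CO2 with five tenfold doses from 1 to 10,000 nM, in duplicate. ATP luminescence was normalised to vehicle and to a positive control at 10 µM, then fitted with a four-parameter log-logistic model. The IC50 came from these fits.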

[2] = test system: K-562; assay: cell viability (% survival relative to DMSO control, bortezomib = 0%); higher = less cytotoxic
Method in brief: (§1)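 Seeding density for each of the 10 AML and 5 CML cell lines was titrated to the linear growth range. Cells went into 384-well plates pre-printed in duplicate with compounds at 1, 10, 100, 1000 or 10000 nM and were held for 72 h at 37 °C with 5% CO2. CellTiter-Glo luminescence then provided the readout. Percent survival is expressed relative to vehicle at 100% and a 10 µM positive control at 0%, averaged over duplicates.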

[3] = test system: HL-60; assay: as above
Method in brief: as §1

[4] = test system: HEL; assay: as above
Method in brief: as §1

[5] = test system: SHI-1; assay: as above
Method in brief: as §1

[6] = test system: THP-1; assay: as above
Method in brief: as §1

[7] = test system: BV-173; assay: as above
Method in brief: as §1

[8] = test system: KG-1; assay: as above
Method in brief: as §1

[9] = test system: KU-812; assay: as above
Method in brief: as §1

[10] = test system: MOLM-13; assay: as above
Method in brief: as §1

[11] = test system: MV4-11; assay: as above
Method in brief: as §1

[12] = test system: LAMA-84; assay: as above
Method in brief: as §1

[13] = test system: ML-2; assay: as above
Method in brief: as §1

[14] = test system: KCL-22; assay: as above
Method in brief: as §1

[15] = test system: Mono-Mac-6; assay: as above
Method in brief: as §1

[16] = test system: NOMO-1; assay: as above
Method in brief: as §1

[17] = test system: HL-60; assay: cell viability (% survival relative to DMSO control); higher = less cytotoxic
Method in brief: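 HL-60 cells grown in RPMI 1640 with 10% FBS were rescreened against the full library in 384-well plates, in duplicate, at five tenfold concentrations from 1 to 10,000 nM, alongside DMSO or 100 nM of one of three metabolic inhibitors for 72 h at 37 °C, 5% CO2. Reference wells contained DMSO or 10 μM proteasome inhibitor. Viability was read with CellTiter-Glo and normalised to these reference wells, and where reported, area under the curve was taken from four-parameter log-logistic fits in drc and PharmacoGx.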

O=C(Oc1cccc(F)c1OC(=O)c1cccc(O)c1)c1cccc(O)c1 [WZB117]
Details	IC50 (cell viability) [µM]
[1]	> 10

cell viability [%]
Details	1 nM	10 nM	100 nM	1000 nM	10000 nM
[2]	96.2	101	102	106	79.1
[3]	102	98	93.3	104	48
[4]	107	110	95.2	99.8	72.7
[5]	95.8	95.6	102	103	72.5
[6]	101	102	101	108	64.9
[7]	96	104	90.5	98.8	15.4
[8]	113	95.7	87.6	90.4	30.7
[9]	99.1	103	90.9	99.9	9.71
[10]	92.2	125	94.7	94	44.8
[11]	106	85.9	97	88.2	25.4
[12]	97.9	98.6	92.4	95.1	101
[13]	102	104	98.7	98.8	25.5
[14]	101	91.4	92	110	70.6
[15]	96.6	104	99.7	101	16.9
[16]	95.5	94.3	94.1	111	82.1

cell viability [%], [17]
Details	0.001 µM	0.01 µM	0.1 µM	1 µM	10 µM
co-treatment: AZD3965 100 nM	102.1 ± 0.63	97.3 ± 1.1	103.1 ± 0.66	101.6 ± 0.47	68.9 ± 8.2
co-treatment: DMSO vehicle	103 ± 2	98.8 ± 7.3	99 ± 5.1	101 ± 1.5	73.3 ± 17
co-treatment: GSK2194069 100 nM	102 ± 7.4	91.2 ± 8.4	95.2 ± 1.2	99.8 ± 4.6	84.6 ± 1.2
co-treatment: pictilisib 100 nM	111 ± 13	100 ± 6.6	96.8 ± 2.6	97.1 ± 4.3	70.9 ± 4.2

CC(C)(Cc1ccccc1)NCC(O)c1ccc(O)c(NS(C)(=O)=O)c1 (stereo not drawn) [Zinterol hydrochloride]
Details	IC50 (cell viability) [µM]
[1]	> 10

cell viability [%]
Details	1 nM	10 nM	100 nM	1000 nM	10000 nM
[2]	92.5	107	99.9	107	111
[3]	107	113	85	87.7	112
[4]	77.8	101	103	110	93.5
[5]	111	112	103	110	120
[6]	109	101	111	103	102
[7]	113	93.6	106	87	121
[8]	118	94.5	99.6	87.9	102
[9]	113	93.9	106	87.1	97.6
[10]	90.9	86.8	82.3	90.7	98
[11]	89.7	79.9	84.5	74.3	88.4
[12]	106	99.1	112	96.6	101
[13]	95.4	93.3	93	93.9	103
[14]	96.1	99.4	98.2	103	95.6
[15]	72.2	51.5	49	48.6	50.1
[16]	107	107	101	98.6	97.4

cell viability [%], [17]
Details	0.001 µM	0.01 µM	0.1 µM	1 µM	10 µM
co-treatment: AZD3965 100 nM	99.4 ± 2.4	83.1 ± 24	101 ± 1.7	93.8 ± 2.5	95.4 ± 5.7
co-treatment: DMSO vehicle	99.8 ± 3.6	91.6 ± 15	99.8 ± 4.9	102 ± 5	95.5 ± 1.3
co-treatment: GSK2194069 100 nM	97.9 ± 2.1	100 ± 6	95.1 ± 3.6	101 ± 0.26	94.64 ± 0.55
co-treatment: pictilisib 100 nM	85.5 ± 12	91.4 ± 4.9	86.6 ± 3.3	90.4 ± 7	72.6 ± 7.7

OCC(CO)N[C@H]1C[C@](O)(CO)[C@@H](O)[C@H](O)[C@H]1O [Voglibose]
Details	IC50 (cell viability) [µM]
[1]	> 10

cell viability [%]
Details	1 nM	10 nM	100 nM	1000 nM	10000 nM
[2]	97.9	107	113	89.4	99.3
[3]	119	99.5	116	88.2	94.6
[4]	124	107	97.3	99.1	118
[5]	106	108	100	96	94.4
[6]	108	96	93	101	99.1
[7]	113	112	99.3	93.8	102
[8]	95.6	102	107	95.6	106
[9]	97.5	109	106	88.5	91.3
[10]	117	94.4	127	70	70.1
[11]	106	107	113	84.7	52.7
[12]	102	105	99.6	94.6	103
[13]	109	110	107	95.2	111
[14]	99.4	97.1	98	98.1	111
[15]	102	96	109	86.7	91.8
[16]	103	103	107	99.1	102

cell viability [%], [17]
Details	0.001 µM	0.01 µM	0.1 µM	1 µM	10 µM
co-treatment: AZD3965 100 nM	96.2 ± 11	103 ± 2.7	100 ± 4.9	96.5 ± 4.9	93.58 ± 0.69
co-treatment: DMSO vehicle	99.5 ± 2.6	99.9 ± 7	100 ± 5.8	99.4 ± 2.4	99.5 ± 1.4
co-treatment: GSK2194069 100 nM	104 ± 19	104 ± 7.5	104 ± 3.5	79.9 ± 24	97.3 ± 1.8
co-treatment: pictilisib 100 nM	113 ± 7.6	112 ± 7.8	106 ± 12	81.9 ± 38	99.1 ± 1.8
